Experimental findings from ChEMBL document CHEMBL1138760, “Conformationally constrained analogues of diacylglycerol (DAG). 23. Hydrophobic ligand-protein interactions versus ligand-lipid interactions of DAG-lactones with protein kinase C (PK-C)” (J Med Chem, 2004) are described below.

Assay [1] is described as follows: Binding affinity for protein kinase C-alpha C1a and C1b domains.
The target in assay [2] is Protein kinase C delta type (Homo sapiens, UniProt Q05655). Description: Binding affinity for isolated C1b domain of protein kinase C-delta.

Each structure is given as a SMILES string.

Protein kinase C delta type, sequence (Q05655 whole entry, the tested form may be a part): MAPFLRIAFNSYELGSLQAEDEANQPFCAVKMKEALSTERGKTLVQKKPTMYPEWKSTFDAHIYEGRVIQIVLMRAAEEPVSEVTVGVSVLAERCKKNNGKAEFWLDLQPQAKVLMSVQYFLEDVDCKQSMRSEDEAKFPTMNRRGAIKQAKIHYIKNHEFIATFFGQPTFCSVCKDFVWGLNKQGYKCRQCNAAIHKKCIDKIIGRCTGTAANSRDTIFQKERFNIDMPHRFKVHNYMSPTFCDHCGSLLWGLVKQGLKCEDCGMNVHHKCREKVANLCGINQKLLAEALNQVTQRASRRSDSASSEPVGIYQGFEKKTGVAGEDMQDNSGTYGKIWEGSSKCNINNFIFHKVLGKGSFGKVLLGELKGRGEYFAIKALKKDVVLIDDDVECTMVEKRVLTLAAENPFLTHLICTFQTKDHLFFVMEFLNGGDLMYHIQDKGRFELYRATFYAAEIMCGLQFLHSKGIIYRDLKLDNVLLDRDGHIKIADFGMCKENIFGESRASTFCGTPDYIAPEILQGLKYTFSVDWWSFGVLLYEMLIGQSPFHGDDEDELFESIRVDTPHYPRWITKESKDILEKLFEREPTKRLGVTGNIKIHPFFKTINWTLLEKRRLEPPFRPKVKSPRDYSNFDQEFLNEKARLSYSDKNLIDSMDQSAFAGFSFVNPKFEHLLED

In the case of `CC(C)CC(C/C=C1/CC(CO)(COC(=O)C(C)(C)C)OC1=O)CC(C)C` (stereo not drawn), the Ki in assay [1] amounted to 2.9 nM; in assay [2], 1.16 nM.

In the case of `CC(C)C(C/C=C1\CC(CO)(COC(=O)C(C)(C)C)OC1=O)C(C)C` (stereo not drawn), the Ki in assay [1] stood at 11.2 nM.

For `CC(C)C(C/C=C1\C(=O)OC(CO)(COC(=O)C(C)(C)C)C1(C)C)C(C)C` (stereo not drawn), the Ki in assay [2] turned out to be 1460 nM. This counts as single-digit micromolar.

As to `CC(C)CC(C/C=C1\CC(CO)(COC(=O)C(C)(C)C)OC1=O)CC(C)C` (stereo not drawn), the Ki turned out to be 3.25 nM in assay [1] and 0.9 nM in assay [2].

In turn, `CC(C)C(C/C=C1/CC(CO)(COC(=O)C(C)(C)C)OC1=O)C(C)C` (stereo not drawn) gave a Ki in assay [1] of 8.32 nM.

Consider `CC(C)C(C/C=C1/C(=O)OC(CO)(COC(=O)C(C)(C)C)C1(C)C)C(C)C` (stereo not drawn), for which affinity in assay [2] was put at a Ki of 3470 nM.
